Results reported in patent publication US20040176431A1, “Antiproliferative 2-(sulfo-phenyl)-aminothiazole derivatives and pharmaceutical compositions, and methods for their use” (Pfizer, Inc., priority 2003, published 2004).
pIC50, pKi: −log10 of the molar value. Counter-ions that a name gives are not always drawn.

Tests used:
CDK4/cyclin D3 = target: T1, CDK4/cyclin D3 (Homo sapiens, UniProt P11802); assay: Inhibition of CDK4/Cyclin D retinoblastoma kinase activity; format: biochemical; conditions: for pKi: apparent Ki, Rb fragment substrate
T1 construct: made in house; host or cells: insect cells (baculovirus co-infection)
How it was run: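 Apparent Ki derived by fitting activity at varied inhibitor concentrations to competitive (or competitive tight-binding) inhibition equations, background without enzyme subtracted. Radiometric filter-binding read-out of Rb(386-928) phosphorylation by 5 nM CDK4/cyclin D3(1-264); 25 μM ATP, pH 7.4, 2% DMSO, 30° C., 20 min, extended to 60 min for tight binders.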

CDK2/cyclin A = target: T2, CDK2/cyclin A (Homo sapiens, UniProt P24941); assay: Inhibition of CDK2/Cyclin A retinoblastoma kinase activity; format: biochemical; conditions: apparent Ki, Rb fragment substrate
T2 construct: made in house; host or cells: CDK2: insect cells (baculovirus); cyclin A: E. coli, then limited proteolysis
Description: Cyclin-dependent kinase activity was measured by quantifying the enzyme-catalyzed, time-dependent incorporation of radioactive phosphate from [^32P]ATP or [^33P]ATP into a protein substrate. Unless noted otherwise, assays were performed in 96-well plates in a total volume of 50 μL, in the presence of 10 mM HEPES (N-[2-hydroxyethyl]piperazine-N′-[2-ethanesulfonic acid]) (pH 7.4), 10 mM MgCl2, 25 μM adenosine triphosphate (ATP), 1 mg/mL ovalbumin, 5 μg/mL leupeptin, 1 mM dithiothreitol, 10 mM β-glycerophosphate, 0.1 mM sodium vanadate, 1 mM sodium fluoride, 2.5 mM ethylene glycol-bis(β-aminoethyl ether)-N,N,N′N′-tetraacetic acid (EGTA), 2% (v/v) dimethylsulfoxide, and 0.03-0.4 μCi [^32/33P]ATP per reaction. Reactions were initiated with enzyme, incubated at 30° C., and terminated after 20 minutes by the addition of ethylenediaminetetraacetic acid (EDTA) to 250 mM. The phosphorylated substrate was then captured on a nitrocellulose or phosphocellulose membrane using a 96-well filtration manifold, and unincorporated radioactivity was removed by repeated washing with 0.85% phosphoric acid. Radioactivity was quantified by exposing the dried membranes to a phosphorimager.
Inhibition was measured relative to control wells that contained all reaction components including 2% (v/v) DMSO but no compound, after subtraction of background radioactivity measured in the absence of enzyme. Apparent Ki values of discrete compounds were measured by assaying enzyme activity in the presence of different inhibitor compound concentrations and subtracting the background radioactivity measured in the absence of enzyme. The kinetic parameters (kcat, Km for ATP) were measured for each enzyme under the usual assay conditions by determining the dependence of initial rates on ATP concentration. Inhibition data were fit to an equation for competitive inhibition using Kaleidagraph (Synergy Software), or were fit to an equation for competitive tight-binding inhibition using the software KineTic (BioKin, Ltd.).
CDK2 was purified using published methodology (Rosenblatt et al., J. Mol. Biol., 230, 1317-1319 (1993)) from insect cells that had been infected with a baculovirus expression vector. Cyclin A was purified from E. coli cells expressing full-length recombinant cyclin A, and a truncated cyclin A construct was generated by limited proteolysis and purified as described previously (Jeffrey et al., Nature, 376, 313-320 (1995)). A complex of CDK2 and proteolyzed cyclin A was prepared and purified by gel filtration. The substrate for this assay was the same Rb substrate fragment used for the CDK4 assays, and the methodology of the CDK2/delta cyclin A and the CDK4/delta cyclin D3 assays was essentially the same, except that CDK2 was present at 10 nM or 19 nM. The duration of the assay was 60 or 75 minutes, during which the time-dependence of product formation was linear and initial rate conditions were met.

HCT-116 cells = assay: Inhibition of cell growth (MTT tetrazolium salt assay); format: cell-based; conditions: Homo sapiens; for pIC50: read-out: HCT116 IC50; for IC90: read-out: HCT116 IC90
Description: Inhibition of cell growth was measured using the tetrazolium salt assay, which is based on the ability of viable cells to reduce 3-(4,5-dimethylthiazol-2-yl)-2,5-[2H]-diphenyltetrazolium bromide (MTT) to formazan (Mosmann, J. Immunol. Meth., 65, 55-63 (1983)). The water-insoluble purple formazan product was then detected spectrophotometrically. HCT-116 cells were grown in 96-well plates. Cells were plated in the appropriate medium at a volume of 135 μl/well in either McCoy's 5A Medium. Plates were incubated for four hours before addition of inhibitor compounds. Different concentrations of inhibitor compounds were added in 0.5% (v/v) dimethylsulfoxide (15 μL/well), and cells were incubated at 37° C. (5% CO2) for four to six days (depending on cell type). At the end of the incubation, MTT was added to a final concentration of 0.2 mg/mL, and cells were incubated for 4 hours more at 37° C. After centrifugation of the plates and removal of medium, the absorbance of the formazan (solubilized in dimethylsulfoxide) was measured at 540 nm. […] All results were compared to control cells treated only with 0.5% (v/v) dimethylsulfoxide.

[1] = test compound at 1 μM (head line shifted: 'mM' printed beside 'Structure')
[2] = test compound at 0.03 (unit cell empty, head line shifted; μM)

T1 sequence (P11802 whole entry, the tested form may be a part): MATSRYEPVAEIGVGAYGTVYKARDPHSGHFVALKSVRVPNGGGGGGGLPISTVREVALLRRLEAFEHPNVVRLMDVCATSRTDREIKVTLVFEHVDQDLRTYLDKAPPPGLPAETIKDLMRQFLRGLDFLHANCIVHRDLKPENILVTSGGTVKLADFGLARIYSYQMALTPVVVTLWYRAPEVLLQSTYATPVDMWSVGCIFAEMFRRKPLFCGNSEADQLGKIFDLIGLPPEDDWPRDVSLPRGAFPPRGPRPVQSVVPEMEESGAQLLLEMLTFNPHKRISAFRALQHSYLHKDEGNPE
T1 sequence (P30281 1-264 partner limits assumed): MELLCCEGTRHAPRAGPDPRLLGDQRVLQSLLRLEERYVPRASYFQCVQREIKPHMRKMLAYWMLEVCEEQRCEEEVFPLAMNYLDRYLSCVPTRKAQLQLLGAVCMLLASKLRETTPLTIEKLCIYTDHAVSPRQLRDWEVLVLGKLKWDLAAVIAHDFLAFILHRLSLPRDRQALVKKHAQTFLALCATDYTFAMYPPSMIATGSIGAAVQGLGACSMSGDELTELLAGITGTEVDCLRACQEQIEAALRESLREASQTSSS

SMILES: Nc1nc(Nc2ccc(S(=O)(=O)NCCOCCO)cc2)sc1C(=O)c1c(F)cccc1F [Example A(6), 4-[4-Amino-5-(2,6-difluoro-benzoyl)-thiazol-2-ylamino]-N-[2-(2-hydroxy-ethoxy)-ethyl]-benzenesulfonamide]
- pKi (CDK4/cyclin D3): 7.59
- pKi (CDK2/cyclin A): 8.28
- pIC50 (HCT-116 cells): 5.72
- IC90 (HCT-116 cells): 4200 nM

SMILES: Nc1nc(Nc2ccc(S(=O)(=O)NCC3CCCCN3)cc2)sc1C(=O)c1c(F)cccc1F (centres unmarked) [D(2), 4-[4-Amino-5-(2,6-difluoro-benzoyl)-thiazol-2-ylamino]-N-piperidin-2-ylmethyl-benzenesulfonamide]
- pKi (CDK4/cyclin D3): 7.70
- pKi (CDK2/cyclin A): 7.35
- pIC50 (HCT-116 cells): 5.40
- IC90 (HCT-116 cells): 9200 nM

SMILES: Nc1nc(Nc2ccc(Sc3ccccn3)cc2)sc1C(=O)c1c(Cl)cccc1Cl [W(2), 4-Amino-5-(2,6-dichloro-benzoyl)-2-[4-(pyridin-2-ylthio)-phenylamino]-thiazole]
- pKi (CDK4/cyclin D3): 6.72
- pKi (CDK2/cyclin A): 6.30

SMILES: CC(CCCC(C)(C)O)NS(=O)(=O)c1ccc(Nc2nc(N)c(C(=O)c3c(F)cc(F)cc3F)s2)cc1 (centres unmarked) [B(2), 4-[4-Amino-5-(2,4,6-trifluoro-benzoyl)-thiazol-2-ylamino]-N-(5-hydroxy-1,5-dimethyl-hexyl)-benzenesulfonamide]
- pKi (CDK4/cyclin D3): 8.21
- pKi (CDK2/cyclin A): 8.89
- pIC50 (HCT-116 cells): 6.01
- IC90 (HCT-116 cells): 2300 nM

SMILES: Nc1nc(Nc2ccc(S)cc2)sc1C(=O)c1c(Cl)cccc1Cl [X(1), 4-Amino-5-(2,6-dichloro-benzoyl)-2-(4-mercapto-phenylamino)-thiazole]
- pKi (CDK2/cyclin A): 6.28

SMILES: Nc1nc(Nc2ccc(S(=O)(=O)N3CCC(CCO)CC3)cc2)sc1C(=O)c1c(F)cccc1F [Example A(16), (4-Amino-2-{4-[4-(2-hydroxy-ethyl)-piperidine-1-sulfonyl]-phenylamino}thiazol-5-yl)-(2,6-difluoro-phenyl)-methanone]
- pKi (CDK4/cyclin D3): 7.24
- pKi (CDK2/cyclin A): 7.74
- pIC50 (HCT-116 cells): 5.82
- IC90 (HCT-116 cells): 3900 nM

SMILES: Nc1nc(Nc2cccc(S)c2)sc1C(=O)c1c(Cl)cccc1Cl [X(2)]
- pKi (CDK2/cyclin A): 5.80

SMILES: CSc1ccc(Nc2nc(N)c(C(=O)c3c(Cl)cccc3Cl)s2)cc1 [R(2), 4-Amino-5-(2,6-dichlorobenzoyl)-2-(4-methylthio-phenylamino)-thiazole]
- pKi (CDK4/cyclin D3): 7.52
- pKi (CDK2/cyclin A): 6.60
- pIC50 (HCT-116 cells): 4.92
- IC90 (HCT-116 cells): > 25000 nM

SMILES: Nc1nc(Nc2ccc(S(=O)(=O)NCCCCCO)cc2)sc1C(=O)c1c(F)cccc1F [A(28), 4-[4-Amino-5-(2,6-difluoro-benzoyl)-thiazol-2-ylamino]-N-(5-hydroxy-pentyl)-benzenesulfonamide]
- pKi (CDK4/cyclin D3): 7.92
- pKi (CDK2/cyclin A): 8.59
- pIC50 (HCT-116 cells): 5.92
- IC90 (HCT-116 cells): 2800 nM

SMILES: Nc1nc(Nc2ccc(S(=O)(=O)c3ccncc3)cc2)sc1C(=O)c1c(Cl)cccc1Cl [AA(3), 4-Amino-5-(2,6-dichlorobenzoyl)-2-[4-(pyridine-4-sulfonyl)-phenylamino]-thiazole]
- pKi (CDK2/cyclin A): 6.72

SMILES: CC(C)CCCCNS(=O)(=O)c1ccc(Nc2nc(N)c(C(=O)c3c(F)cccc3F)s2)cc1 [A(37), 4-[4-Amino-5-(2,6-difluoro-benzoyl)-thiazol-2-ylamino]-N-(5-methyl-hexyl)-benzenesulfonamide]
- pKi (CDK4/cyclin D3): 7.46
- pKi (CDK2/cyclin A): 8.31
- pIC50 (HCT-116 cells): 5.92
- IC90 (HCT-116 cells): 3800 nM

SMILES: Nc1nc(Nc2ccc(S(=O)(=O)NCc3ccco3)cc2)sc1C(=O)c1c(F)cccc1F [Example A(22), 4-[4-Amino-5-(2,6-difluoro-benzoyl)-thiazol-2-ylamino]-N-furan-2-ylmethyl-benzenesulfonamide]
- pKi (CDK4/cyclin D3): 7.66
- pIC50 (HCT-116 cells): 6.62
- IC90 (HCT-116 cells): 620 nM

SMILES: Cc1ccc(CNS(=O)(=O)c2ccc(Nc3nc(N)c(C(=O)c4c(F)cccc4F)s3)cc2)s1 [A(29), 4-[4-Amino-5-(2,6-difluoro-benzoyl)-thiazol-2-ylamino]-N-(5-methyl-thiophen-2-ylmethyl)-benzenesulfonamide]
- pKi (CDK4/cyclin D3): 7.82
- pKi (CDK2/cyclin A): > 8.30
- pIC50 (HCT-116 cells): 6.72
- IC90 (HCT-116 cells): 560 nM

SMILES: CC(C)OCCCNS(=O)(=O)c1ccc(Nc2nc(N)c(C(=O)c3c(F)cccc3F)s2)cc1 [Example A(10), 4-[4-Amino-5-(2,6-difluoro-benzoyl)-thiazol-2-ylamino]-N-(3-isopropoxy-propyl)-benzenesulfonamide]
- pKi (CDK4/cyclin D3): 7.92
- pKi (CDK2/cyclin A): 8.66
- pIC50 (HCT-116 cells): 6.05
- IC90 (HCT-116 cells): 2200 nM

SMILES: Nc1nc(Nc2ccc(S(N)(=O)=O)cc2)sc1C(=O)c1c(F)cc(F)cc1F [C(115)*, reference compound]
- pIC50 (HCT-116 cells): 6.01
- IC90 (HCT-116 cells): 2100 nM

SMILES: CS(=O)(=O)c1cccc(Nc2nc(N)c(C(=O)c3c(Cl)cccc3Cl)s2)c1 [AA(1), 4-Amino-5-(2,6-dichloro-benzoyl)-2-(3-methanesulfonyl-phenylamino)-thiazole]
- pKi (CDK2/cyclin A): 6.37

SMILES: CNS(=O)(=O)c1ccc(Nc2nc(N)c(C(=O)c3c(F)cccc3F)s2)cc1 [C(108)*, reference compound]
- pIC50 (HCT-116 cells): 6.40
- IC90 (HCT-116 cells): 1400 nM

SMILES: Cn1cncc1CNS(=O)(=O)c1ccc(Nc2nc(N)c(C(=O)c3c(F)cccc3F)s2)cc1 [A(38), 4-[4-Amino-5-(2,6-difluoro-benzoyl)-thiazol-2-ylamino]-N-(1-methyl-1H-imidazol-5-ylmethyl)-benzenesulfonamide Trifluoroacetic Acid Salt]
- pKi (CDK4/cyclin D3): 8.41
- pKi (CDK2/cyclin A): 9.32

SMILES: CN(C)S(=O)(=O)c1ccc(Nc2nc(N)c(C(=O)c3c(F)cccc3F)s2)cc1 [C(109)*, reference compound]
- pIC50 (HCT-116 cells): 5.80
- IC90 (HCT-116 cells): 3000 nM

SMILES: C[S+]([O-])c1cccc(Nc2nc(N)c(C(=O)c3c(Cl)cccc3Cl)s2)c1 (centres unmarked) [Z(1), 4-Amino-5-(2,6-benzoyl)-2-(3-methanesulfinyl-phenylamino)-thiazole]
- pKi (CDK2/cyclin A): 6.35

SMILES: Nc1nc(Nc2ccc(S(=O)(=O)NCc3cc(Cl)ccc3Cl)cc2)sc1C(=O)c1c(F)cccc1F [Example A(7), 4-[4-Amino-5-(2,6-difluoro-benzoyl)-thiazol-2-ylamino]-N-(2,5-dichloro-benzyl)-benzenesulfonamide]
- pKi (CDK4/cyclin D3): 7.21
- pKi (CDK2/cyclin A): 7.96

SMILES: CC(CN(C)C)C[S+]([O-])c1cccc(Nc2nc(N)c(C(=O)c3c(Cl)cccc3Cl)s2)c1 (centres unmarked) [DD(123)]
- inhibition at 0.1 µM (CDK4/cyclin D3; test compound at 0.1 μM, read-out: % Inhib CDK4/D @ 0.1 μM): 34%
- inhibition at 1 µM (CDK4/cyclin D3; test compound at 1 μM (head line shifted: 'mM' printed beside 'Structure'), read-out: % Inhib CDK4/D @ 1 μM): 51.2%
- inhibition at 0.03 µM (CDK4/cyclin D3; test compound at 0.03 (unit cell empty, head line shifted; μM), read-out: % Inhib CDK4/D @ 0.03): 8%

SMILES: COc1cccc(CS(=O)(=O)c2ccc(Nc3nc(N)c(C(=O)c4c(Cl)cccc4Cl)s3)cc2)c1 [DD(217)]
- % Inhib CDK4/D @ 0.1 μM (CDK4/cyclin D3; test compound at 0.1 μM): 39%
- % Inhib CDK4/D @ 1 μM (CDK4/cyclin D3; [1]): −21%
- % Inhib CDK4/D @ 0.03 (CDK4/cyclin D3; [2]): −8%

SMILES: Nc1nc(Nc2ccc(S(=O)(=O)CC3CCCO3)cc2)sc1C(=O)c1c(Cl)cccc1Cl (centres unmarked) [DD(218)]
- % Inhib CDK4/D @ 0.1 μM (CDK4/cyclin D3; test compound at 0.1 μM): 33%
- % Inhib CDK4/D @ 1 μM (CDK4/cyclin D3; [1]): 23.4%
- % Inhib CDK4/D @ 0.03 (CDK4/cyclin D3; [2]): −12%
